Columns and labels:
Assay in all cases: relative viability (nuclei count vs DMSO), 5 days (fraction); higher = more cells survive
BAY61-3606 + Alpelisib = compound: COC1=C(C=C(C=C1)C2=CC3=NC=CN3C(=N2)NC4=C(C=CC=N4)C(=O)N)OC [BAY61-3606] + Cc1nc(NC(=O)N2CCC[C@H]2C(N)=O)sc1-c1ccnc(C(C)(C)C(F)(F)F)c1 [Alpelisib] (partner 2 µM)
In short: (§1)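 Values are medians from duplicate plates. Each reflects relative viability, defined as the nuclei count of treated wells over that of vehicle wells. Lung cancer cell lines in 1536-well plates were pin-tool dosed one day after seeding with one drug alone or with a fixed anchor-drug dose plus five library-drug doses (not always all listed) in √10 steps, then fixed, stained and imaged at 4× after 5 days.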

Doxorubicin + Pemetrexed = compound: COc1cccc2c1C(=O)c1c(O)c3c(c(O)c1C2=O)C[C@@](O)(C(=O)CO)C[C@@H]3O[C@H]1C[C@H](N)[C@H](O)[C@H](C)O1 [Doxorubicin] + Nc1nc2[nH]cc(CCc3ccc(C(=O)N[C@@H](CCC(=O)O)C(=O)O)cc3)c2c(=O)[nH]1 [Pemetrexed] (partner 0.2 µM)
In short: as §1

Doxorubicin = compound: COc1cccc2c1C(=O)c1c(O)c3c(c(O)c1C2=O)C[C@@](O)(C(=O)CO)C[C@@H]3O[C@H]1C[C@H](N)[C@H](O)[C@H](C)O1 [Doxorubicin]
In short: (§2)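 Only plates meeting two conditions passed: control CV below 25% and at least one doubling. Lung cancer cell lines, kept overnight at 37 °C in 1536-well plates, were pinned with five library-drug doses (not always all listed) √10 apart on vehicle-anchored plates and grown 5 days without medium change. A one-step fix, permeabilisation and Hoechst stain preceded 4× imaging and MetaXpress nuclear counting. Viability equals treated-well nuclei divided by vehicle-well nuclei, as the median over plates.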

BAY61-3606 = compound: COC1=C(C=C(C=C1)C2=CC3=NC=CN3C(=N2)NC4=C(C=CC=N4)C(=O)N)OC [BAY61-3606]
In short: as §2

Cell Line | relative viability (BAY61-3606 + Alpelisib; first compound 0.02 µM) | relative viability (BAY61-3606 + Alpelisib; first compound 0.06325 µM) | relative viability (BAY61-3606 + Alpelisib; first compound 0.2 µM) | relative viability (BAY61-3606 + Alpelisib; first compound 0.6325 µM) | relative viability (BAY61-3606 + Alpelisib; first compound 2 µM) | relative viability (Doxorubicin + Pemetrexed; first compound 0.001 µM) | relative viability (Doxorubicin + Pemetrexed; first compound 0.003162 µM) | relative viability (Doxorubicin + Pemetrexed; first compound 0.01 µM) | relative viability (Doxorubicin + Pemetrexed; first compound 0.03162 µM) | relative viability (Doxorubicin + Pemetrexed; first compound 0.1 µM) | relative viability (Doxorubicin; 0.001 µM) | relative viability (Doxorubicin; 0.003162 µM) | relative viability (Doxorubicin; 0.01 µM) | relative viability (Doxorubicin; 0.03162 µM) | relative viability (Doxorubicin; 0.1 µM) | relative viability (BAY61-3606; 0.02 µM) | relative viability (BAY61-3606; 0.06325 µM) | relative viability (BAY61-3606; 0.2 µM) | relative viability (BAY61-3606; 0.6325 µM) | relative viability (BAY61-3606; 2 µM)
CAL-12T | 1.21 | 1.28 | 1.11 | 1.4 | 0.607 | 1.1 | 1.22 | 1.03 | 0.38 | 0.248 | 0.973 | 1.05 | 0.926 | 0.541 | 0.349 | 1.02 | 1.07 | 0.938 | 0.99 | 0.628
SK-LU-1 | 1.37 | 0.951 | 1.04 | 0.844 | 0.421 | 0.929 | 1.08 | 0.903 | 0.601 | 0.513 | 1 | 1.05 | 0.987 | 0.798 | 0.654 | 1.08 | 1.04 | 1.04 | 1.06 | 0.694
NCI-H650 | 1.27 | 1.12 | 1 | 1.1 | 0.871 | 1.05 | 0.846 | 0.926 | 0.867 | 0.784 | 1 | 0.86 | 0.92 | 0.83 | 0.741 | 1 | 0.802 | 0.818 | 0.942 | 0.745
NCI-H2170 | 0.775 | 0.869 | 0.801 | 0.857 | 0.512 | 0.248 | 0.265 | 0.32 | 0.252 | 0.274 | 0.973 | 0.992 | 0.93 | 0.799 | 1.02 | 0.983 | 0.978 | 0.974 | 1.03 | 0.932
NCI-H2023 | 0.614 | 0.607 | 0.604 | 0.6 | 0.471 | 0.247 | 0.218 | 0.212 | 0.128 | 0.0912 | 0.873 | 0.903 | 0.706 | 0.209 | 0.0985 | 1.14 | 1.05 | 1 | 1.16 | 0.697
201T | 1.07 | 1.03 | 1.05 | 1.1 | 1.09 | 0.344 | 0.325 | 0.352 | 0.338 | 0.351 | 0.867 | 0.985 | 0.987 | 0.978 | 0.942 | 0.996 | 0.959 | 1 | 1.01 | 0.95
NCI-H2405 | 1.03 | 0.619 | 0.682 | 0.881 | 0.574 | 1.05 | 1.11 | 1.05 | 0.942 | 0.445 | 0.972 | 1.04 | 1.08 | 0.997 | 0.626 | 1.07 | 0.984 | 0.977 | 0.968 | 0.84
LU99A | 0.508 | 0.521 | 0.508 | 0.492 | 0.251 | 0.199 | 0.186 | 0.191 | 0.173 | 0.165 | 0.938 | 1.02 | 0.893 | 0.838 | 0.813 | 1.04 | 0.953 | 1.01 | 0.967 | 0.702
LC-2-ad | 0.851 | 0.96 | 0.875 | 0.82 | 0.671 | 0.267 | 0.255 | 0.264 | 0.305 | 0.288 | 0.883 | 0.909 | 0.948 | 0.943 | 0.793 | 1.07 | 1.01 | 0.932 | 1.04 | 0.841
NCI-H2087 | 1.15 | 1.17 | 1.02 | 1.16 | 0.949 | 0.577 | 0.731 | 0.579 | 0.615 | 0.668 | 0.819 | 1.15 | 1.01 | 0.78 | 0.636 | 0.996 | 1.15 | 1.18 | 1.11 | 0.961
COR-L23 | 0.868 | 0.764 | 0.753 | 0.78 | 0.486 | 0.202 | 0.212 | 0.203 | 0.2 | 0.186 | 0.998 | 1.05 | 0.932 | 0.718 | 0.235 | 1.05 | 1.09 | 1.06 | 1 | 0.909
BEN | 1.23 | 0.831 | 1.24 | 1.24 | 0.958 | 0.899 | 0.78 | 0.926 | 0.631 | 0.701 | 1.19 | 1.03 | 0.985 | 0.683 | 0.85 | 1.05 | 0.891 | 1.1 | 1.07 | 1.05
LK-2 | 1.11 | 0.874 | 1.17 | 1.15 | 0.996 | 0.225 | 0.255 | 0.228 | 0.26 | 0.238 | 0.903 | 1.08 | 0.829 | 0.788 | 1.08 | 1.08 | 0.939 | 1.06 | 1.09 | 0.923
NCI-H520 | 1.07 | 0.801 | 1.11 | 1.04 | 1.02 | 0.789 | 0.728 | 0.681 | 0.703 | 0.604 | 0.901 | 1.03 | 0.939 | 0.799 | 0.822 | 1.07 | 1.06 | 1.07 | 1.12 | 1.05
NCI-H661 | 0.754 | 0.571 | 0.694 | 0.57 | 0.689 | 0.894 | 1.02 | 0.891 | 0.754 | 0.643 | 1.01 | 1.06 | 0.957 | 0.853 | 0.634 | 1.02 | 0.993 | 0.991 | 0.963 | 0.976
NCI-H2009 | 1.11 | 1.14 | 1.09 | 1.21 | 1.08 | 1.04 | 0.987 | 1.01 | 0.788 | 0.617 | 0.99 | 1.01 | 0.94 | 0.843 | 0.504 | 1.06 | 1.03 | 0.997 | 0.989 | 0.894
NCI-H1993 | 0.644 | 0.674 | 0.719 | 0.758 | 0.703 | 0.603 | 0.685 | 0.58 | 0.57 | 0.528 | 0.967 | 0.927 | 1.01 | 0.819 | 0.749 | 0.958 | 0.896 | 0.818 | 0.97 | 0.806
HCC-78 | 0.405 | 0.366 | 0.453 | 0.362 | 0.358 | 0.946 | 0.889 | 0.927 | 0.909 | 0.888 | 1 | 0.999 | 0.851 | 0.955 | 0.954 | 1.04 | 0.934 | 0.973 | 0.985 | 1.08
